Read-outs that look alike come from different tables or passages of the source.
Columns and labels:
[1] = test system: MARTXVc CPD; settings: cited from earlier work
[2] = test system: MARTXVc CPD; type: biochemical, Vibrio cholerae; settings: read-out: AC50 (InsP6 for 50% cleavage)
[3] = molecular target: V. vulnificus CMCP6 VV20479 MARTX CPD (Vibrio vulnificus, UniProt A0A2S3R7M0); type: biochemical; settings: 10 µM InsP6
[4] = test system: P. luminescens TTO1 MARTX CPDs (Plu3217, Plu3324, Plu1341, Plu1344); type: biochemical, Photorhabdus luminescens

Nc1nc2c(ncn2[C@@H]2O[C@H](COP(=O)(O)OP(=O)(O)OP(O)(O)=S)[C@@H](O)[C@H]2O)c(=O)[nH]1 [GTPγS, guanosine 5′-[γ-thio]triphosphate]
potency as activator of the CPD [1]: much less potent activator

O=P(O)(O)OC1C(OP(=O)(O)O)C(OP(=O)(O)O)C(OP(=O)(O)O)C(OP(=O)(O)O)C1OP(=O)(O)O (centres unmarked) [InsP6, inositol hexakisphosphate]
AC50 [2]: 0.76 ± 0.27 nM
InsP6-dependent autoprocessing [3]: underwent InsP6-dependent autoprocessing
InsP6-dependent autoprocessing [4]: underwent InsP6-dependent autoprocessing
AC50 ([1]; read-out: AC50 (InsP6 for half-maximal autocleavage)): 0.91 ± 0.1 nM

Source: publication PMC2783333 (Nature chemical biology, 2009)
